Data published in PubChem BioAssay (NCI).
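Values below derive from 48-hour exposures of cells grown in 96-well plates, with endpoints linearly interpolated between the two concentrations bracketing the appropriate inhibition level. TGI is the concentration that stops growth completely.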 Where a SMILES comes first, the peptide text is derived from it. The star is where a group is joined. Boc = CC(C)(C)OC(=O)*; OBn = c1ccc(CO*)cc1

Assays:
Assay in all cases: DTP human tumour cell line panel, 48 h
OVCAR-3 ovarian = tested on: OVCAR-3 ovarian
DU-145 prostate = tested on: DU-145 prostate
ACHN renal = tested on: ACHN renal
SNB-75 CNS = tested on: SNB-75 CNS
NCI-H460 lung = tested on: NCI-H460 lung
HCC-2998 colon = tested on: HCC-2998 colon
SF-539 CNS = tested on: SF-539 CNS
HCT-15 colon = tested on: HCT-15 colon
SF-268 CNS = tested on: SF-268 CNS
NCI/ADR-RES ovarian = tested on: NCI/ADR-RES ovarian
HT29 colon = tested on: HT29 colon
SK-MEL-5 melanoma = tested on: SK-MEL-5 melanoma
CAKI-1 renal = tested on: CAKI-1 renal
MDA-N = tested on: MDA-N
EKVX NSCLC = tested on: EKVX NSCLC
SW-620 colon = tested on: SW-620 colon
CCRF-CEM leukemia = tested on: CCRF-CEM leukemia
U251 CNS = tested on: U251 CNS

Row | SMILES | TGI (OVCAR-3 ovarian) [µM] | TGI (DU-145 prostate) [µM] | TGI (ACHN renal) [µM] | TGI (SNB-75 CNS) [µM] | TGI (NCI-H460 lung) [µM] | TGI (HCC-2998 colon) [µM] | TGI (SF-539 CNS) [µM] | TGI (HCT-15 colon) [µM] | TGI (SF-268 CNS) [µM] | TGI (NCI/ADR-RES ovarian) [µM] | TGI (HT29 colon) [µM] | TGI (SK-MEL-5 melanoma) [µM] | TGI (CAKI-1 renal) [µM] | TGI (MDA-N) [µM] | TGI (EKVX NSCLC) [µM] | TGI (SW-620 colon) [µM] | TGI (CCRF-CEM leukemia) [µM] | TGI (U251 CNS) [µM]
1 | O=C1CC(C(=O)N2CCCCC2)n2c(=O)n(-c3ccccc3)c(=O)n2C1 (centres undefined) | > 100 | > 100 | > 100 | > 100 | > 100 | > 100 | > 100 | > 100 | > 100 | > 100 | > 100 | > 100 | > 100 | > 100 | > 100 |  |  | 
2 | COc1ccc(C2(O)c3ccccc3C(=O)N(C)C2(O)c2ccc(OC)cc2)cc1 (centres undefined) | > 100 | > 100 |  |  | > 100 | > 100 | > 100 | > 100 | > 100 | > 100 | > 100 | > 100 | > 100 | 38.1 | > 100 | > 100 | > 100 | > 100
3 | COc1ccc(C(=O)/C=C/c2cccnc2)cc1OC | 11 | 27.8 | 26.7 | 24.4 |  |  | 6.4 | 23.9 | 26.7 | 36.5 | 15.2 | 27.4 | 15.7 | 25.6 | 28.7 |  | > 100 | 16.7
4 | Cn1c(=O)c2c(ncn2CCCCOc2ccc3c(c2)[n+]([O-])nc(N)[n+]3[O-])n(C)c1=O | > 100 | > 100 |  | 90 | > 100 | 52.6 | 70 | > 100 | > 100 | > 100 | > 100 | 22.1 | > 100 | > 100 | > 100 | > 100 | > 100 | 91.8
5 | NC(CCC(=O)O)(CCC(=O)O)CCC(=O)O |  | > 100 | > 100 | > 100 | > 100 |  | > 100 | > 100 | > 100 | > 100 | > 100 | > 100 | > 100 | > 100 | > 100 | > 100 | > 100 | > 100
6 | CCN(CC)C(=S)N=Nc1c(O)[nH]c2ccccc12 | 2.12 | > 100 | 10.1 | 11.2 | 3.08 |  | 2.4 | 19.6 | > 100 | 0.759 | 14.8 | 2.41 | 5.98 | 16.5 | 11.5 | 19.7 | 5.75 | 13
7 | CC(NC(=O)C(Cc1ccccc1)NC(=O)C(Cc1ccccc1)NC(=O)OC(C)(C)C)C(=O)OCc1ccccc1 (stereo not drawn) (Boc-Phe-Phe-Ala-OBn; configuration not given here) | > 100 | > 100 |  | > 100 | > 100 | > 100 | > 100 |  | > 100 | > 100 | > 100 | > 100 |  | > 100 | > 100 | > 100 | > 100 | > 100
8 | N#Cc1[nH]c(=O)n(-c2cccc3ccccc23)c1N | > 10 | > 10 | > 10 |  | > 10 | > 10 | > 10 | > 10 | > 10 | > 10 | > 10 | > 10 | > 10 | > 10 | > 10 | > 10 | > 10 | > 10
9 | CC12c3c4cc(Br)cc3Oc3cc(Br)cc(c31)Oc1cc(Br)cc(c12)O4 | 28.2 | 49.1 | > 100 | 31.3 | > 100 | > 100 | > 100 | > 100 | 28.2 | 58.5 | > 100 | 84.5 |  | > 100 | 82.6 | > 100 |  | > 100
10 | COC(=O)C1=C(C)NC(C)=C(C(=O)OC)C1c1cccc(NO)c1 | 29.5 | > 100 | 26.8 |  | 31.4 | > 100 | 32.6 | 41.4 | 30.6 | 42.3 | 32.4 | 29.4 | 26.1 | 28.5 | 70.9 | 28.5 | > 100 | 29.8
11 | c1ccc2c(c1)nc1n2C2CCC(C2)N1 (centres undefined) | > 10 | > 10 |  | > 10 | > 10 | > 10 | > 10 | > 10 | > 10 | > 10 | > 10 | > 10 | > 10 | > 10 | > 10 | > 10 | > 10 | > 10
12 | CCCCCC[C@H]1C(=O)O[C@H](C)[C@H](NC(=O)c2cccc(NC=O)c2OC)C(=O)O[C@@H](C)[C@@H]1OC(=O)CC(C)C (tested in a mixture with another compound) | 22.5 | > 100 | 49.2 |  | > 100 | > 100 | 78.3 | > 100 | > 100 | 84.9 | > 100 | 38.7 | 57.3 | > 100 | > 100 | > 100 | 85.3 | 34.1
13 | CC(C)(CO)NC(=O)Nc1c(C(F)(F)F)cc(-c2ccccc2)[nH]c1=O | > 100 | > 100 | > 100 |  | > 100 | > 100 |  | > 100 | > 100 | > 100 | > 100 | > 100 | > 100 | > 100 | > 100 | > 100 | > 100 | > 100
14 | Cn1cnc(N2CCCC2)c(C#N)c1=O | > 100 | > 100 | > 100 |  | > 100 | > 100 | > 100 | > 100 | > 100 | > 100 | > 100 | > 100 | > 100 | > 100 | > 100 | > 100 | > 100 | > 100
15 | C/C(=N\NC(=S)NC(C)(C)C)c1ccccn1 | > 100 | > 100 |  | > 100 |  | > 100 | 18.1 | > 100 | > 87.8 | > 39.7 | > 76.6 | > 40 | > 100 | > 100 | > 100 | > 100 |  | > 85.9
16 | O=S(=O)(O)c1ccc2c(N=Nc3ccc(F)cc3)c(O)c(S(=O)(=O)O)cc2c1 | > 100 | > 100 | > 100 | > 100 |  |  |  | > 100 | > 100 | > 100 | > 100 | > 100 | > 100 | > 100 | > 100 | > 100 | > 100 | > 100
17 | Cc1ccc(S(=O)(=O)NNC2(NS(=O)(=O)c3ccc(Cl)cc3)C(Cl)=C(Cl)C(=O)c3ccccc32)cc1 (centres undefined) | 42.1 | 33.2 | 29.7 |  | 38.1 | 33.2 | 48.8 | 83.8 | 29.6 | 89.8 | 35.1 | 28.7 | 32.4 | 32.2 | 28.9 | 76 | 63 | 57.3
18 | CC(C)CC(NC(=O)C(CCI)Cc1ccccc1)C(=O)Nc1ccccc1 (centres undefined) | > 100 | > 100 | > 100 | > 100 | > 100 | > 100 | > 100 | > 100 |  | > 100 |  | > 100 | > 100 | > 100 | > 100 | > 100 | > 100 | > 100
19 | CC(C)(C)OC(=O)N/N=C(/N)Cc1ccccc1 | > 100 | > 100 | > 100 | > 100 |  | > 100 | > 100 | > 100 | > 100 | > 100 | > 100 | > 100 | > 100 | > 100 | > 100 | > 100 | > 100 | > 100
20 | CC(C)CCc1n[nH]c(=O)n1/N=C\c1ccccc1 | > 100 | > 100 | > 100 | > 100 | > 100 | > 100 | > 100 | > 100 | > 100 | > 100 | > 100 | > 100 |  | > 100 | > 100 | > 100 | > 100 | > 100
21 | O=C(/C=C/c1ccc(Cl)cc1)c1cccs1 |  | > 100 | 37.5 | 43.4 | 35.4 | 37.5 | > 100 | 49.9 | 75.9 | 74.4 | > 100 | 32.5 | 45.2 | 31.6 | 68 | 30.4 | 98.1 | 29.5
22 | CC1(C)OC(=O)C2(O1)C(=O)C1CCCCC12 (centres undefined) | > 100 | > 100 | > 100 |  |  | > 100 |  | > 100 | > 100 | > 100 | > 100 | > 100 | > 100 | > 100 | > 100 | > 100 | > 100 | > 100
23 | Cc1n[nH]c(=O)n1/N=C\CC/C=N\n1c(C)n[nH]c1=O | > 100 | > 100 | > 100 | > 100 |  | > 100 | > 100 | > 100 | > 100 | > 100 | > 100 | > 100 | > 100 | > 100 | > 100 | > 100 | > 100 | > 100
24 | O=C(Cc1ccccc1)NCCCN(CCCCN(CCCNC(=O)Cc1ccccc1)C(=O)OCc1ccccc1)C(=O)OCc1ccccc1 | > 100 | > 100 | > 100 |  | > 100 | > 100 | > 100 | > 100 | > 100 | > 100 | > 100 | > 100 |  | > 100 | > 100 | > 100 | > 29.5 | > 100
25 | O=C(CCCN1CCC2(CC1)CC(=O)N(N1CCCCCC1)C2=O)c1ccc(F)cc1 | > 100 | > 100 | > 100 | > 100 |  |  | > 100 | > 100 | > 100 | 37.3 | 33.8 | > 100 | > 100 | > 100 | > 100 | > 100 | > 100 | > 100
26 | CN(CCCN(C)CCc1ccc(Cl)c(Cl)c1)CCCN1CCCC1 | 14.8 | 21.4 | 19.2 | 8.91 | 5.98 | 0.82 |  | 7.22 | 7.02 | 19.8 | 2.58 |  | 6.33 | 2.65 | 13.7 | 7.96 | 2.12 | 4.62
27 | Nc1ncnc2c1cnn2Cc1cn(COCC(O)CO)nn1 (centres undefined) | > 100 | > 100 | > 100 |  |  | > 100 | > 100 | > 100 | 34.9 | > 100 | > 100 | > 100 | > 100 | > 100 | > 100 | > 100 | > 100 | > 100
28 | COC(=O)C1CCC(=O)N1C(c1ccccc1)c1cc(OC)c(OC)c(OC)c1 (centres undefined) | > 100 | > 100 | > 100 |  | > 100 | > 100 | > 100 | > 100 | > 100 | > 100 | > 100 |  | > 100 | 58.8 | > 100 | > 100 | > 100 | > 100
